The source of these data is ChEMBL document CHEMBL1130773, “Identification of a non peptidic RANTES antagonist” (Bioorg Med Chem Lett, 1998).

Calls of active or inactive are those of the source. No cut-off for these calls is given here.

Chain of C-C chemokine receptor type 2 (Homo sapiens) (P41597 whole entry, looked up): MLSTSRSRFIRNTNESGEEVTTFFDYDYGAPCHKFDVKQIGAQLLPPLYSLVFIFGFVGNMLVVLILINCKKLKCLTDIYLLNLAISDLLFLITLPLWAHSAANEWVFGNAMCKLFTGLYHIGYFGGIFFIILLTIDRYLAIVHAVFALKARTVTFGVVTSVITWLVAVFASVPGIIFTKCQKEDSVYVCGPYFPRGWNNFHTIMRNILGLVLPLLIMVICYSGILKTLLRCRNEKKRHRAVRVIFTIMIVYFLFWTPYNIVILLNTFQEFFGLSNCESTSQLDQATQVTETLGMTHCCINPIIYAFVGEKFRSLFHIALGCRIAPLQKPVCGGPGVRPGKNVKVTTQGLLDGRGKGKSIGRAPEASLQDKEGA

System in one assay: not listed separately
Description: Inhibition of [125I]RANTES binding to THP-1 cell membranes rich in C-C chemokine receptor types 1. More on the design: species or system Homo sapiens.
Conditions: not given
For the molecule `CN(C)S(=O)(=O)c1ccc2c(c1)N(CCCN1CCC(Cc3ccccc3)CC1)c1ccccc1S2`, the IC50 is 7 µM.

`CC(=O)c1ccc2c(c1)N(CCCN1CCC3(CC1)C(=O)NCN3c1ccccc1)c1ccccc1S2` returned a 50% inhibitory concentration (IC50) of 3 µM.

In turn, `N#Cc1ccc2c(c1)N(CCCN1CCC3(CC1)C(=O)NCN3c1ccccc1)c1ccccc1S2` registered an IC50 of 6 µM.

`CN(CCCc1ccccc1)CCCN1c2ccccc2Sc2ccc(S(=O)(=O)N(C)C)cc21`: the IC50 worked out at 4 µM.

As for `CN(C)S(=O)(=O)c1ccc2c(c1)N(CCCN1CCC(C3CCCCC3)CC1)c1ccccc1S2`, the IC50 was determined as 2 µM. This IC50 is about 2-fold lower than that of the molecule before.

For the molecule `CN(C)S(=O)(=O)c1ccc2c(c1)N(CCCN1CCC3(CC1)C(=O)NCN3c1ccccc1)c1ccccc1S2`, the half-inhibitory concentration (IC50) came to 3 µM.

On to `CN(C)S(=O)(=O)c1ccc2c(c1)N(CCCN1CCC(c3ccccc3)CC1)c1ccccc1S2`, for which the IC50 came out at 4.5 µM.

`COC(=O)c1ccc2c(c1)N(CCCN1CCC3(CC1)C(=O)NCN3c1ccccc1)c1ccccc1S2` had an IC50 of 4 µM.

The molecule `CN(C)S(=O)(=O)c1ccc2c(c1)N(CCCCN1CCC3(CC1)C(=O)NCN3c1ccccc1)c1ccccc1S2` yielded an IC50 of 10 µM.

`O=C1NCN(c2ccccc2)C12CCN(CCCN1c3ccccc3Sc3ccc(Cl)cc31)CC2` returned a half-inhibitory concentration (IC50) of 7 µM.

For the molecule `CN(C)C(=O)c1ccc2c(c1)N(CCCN1CCC3(CC1)C(=O)NCN3c1ccccc1)c1ccccc1S2`, the IC50 was 5 µM.

In the case of `O=C1NCN(c2ccccc2)C12CCN(CCCN1c3ccccc3Sc3ccccc31)CC2`, the IC50 is 12 µM.

A further assay has as its target C-C chemokine receptor type 2 (Homo sapiens) (UniProt P41597). The assay can be described thus: Tested for inhibition of [125I]-MCP-1 receptor binding to THP-1 cell membranes at concentrations up to 30 uM; NI means no inhibition.
Conditions: not given
Consider `CN(C)S(=O)(=O)c1ccc2c(c1)N(CCCN1CCC3(CC1)C(=O)NCN3c1ccccc1)c1ccccc1S2`, for which the inhibition result is “inactive”.

The test system of a further assay is THP-1. Description: Compound was tested in vitro for inhibition of [125I]RANTES binding to THP-1 cell membranes rich in C-C chemokine receptor type 1. The conditions noted are these: dose or concentration not given here.
The molecule `CN(C)S(=O)(=O)c1ccc2c(c1)N(CCN1CCC3(CC1)C(=O)NCN3c1ccccc1)c1ccccc1S2` yielded an inhibition of under 20%.

As to `CN(C)S(=O)(=O)c1ccc2c(c1)N(CCCN1CCCCC1)c1ccccc1S2`, the inhibition came out at 38%.

As usually defined, the IC50 is the midpoint of a concentration-inhibition curve. A high value points to weaker potency. By inhibition is commonly meant the relative decrease from the control value, in per cent.
